Assay results taken from patent US20260347347A1, “2-AZA-AND 2-OXABICYCLO[2.1.1]HEXANE DERIVATIVES AS FACTOR XIIA ENZYME INHIBITORS” (KALVISTA PHARMACEUTICALS LIMITED, priority 2022, published 2026).

target: T1, Human Factor XIIa (Homo sapiens, UniProt P00748); assay: Determination of FXIIa inhibition (in vitro IC50 assay, fluorogenic substrate H-DPro-Phe-Arg-AFC); type: biochemical; conditions: human Factor XIIa; fluorogenic substrate H-DPro-Phe-Arg-AFC at Km concentration; 5 min, 25 °C; class symbols; read-out: Human FXIIa IC50
T1 construct: purchased Enzyme Research Laboratories
T1 sequence (P00748 373-615 limits assumed): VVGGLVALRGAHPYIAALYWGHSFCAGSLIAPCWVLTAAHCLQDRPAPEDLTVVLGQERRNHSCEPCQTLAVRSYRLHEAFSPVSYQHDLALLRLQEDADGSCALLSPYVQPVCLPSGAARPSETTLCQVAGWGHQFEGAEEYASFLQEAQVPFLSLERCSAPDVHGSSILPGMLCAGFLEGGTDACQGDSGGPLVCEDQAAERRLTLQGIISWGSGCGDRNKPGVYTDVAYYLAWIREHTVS
T1 sequence (P00748 20-372 partner limits assumed): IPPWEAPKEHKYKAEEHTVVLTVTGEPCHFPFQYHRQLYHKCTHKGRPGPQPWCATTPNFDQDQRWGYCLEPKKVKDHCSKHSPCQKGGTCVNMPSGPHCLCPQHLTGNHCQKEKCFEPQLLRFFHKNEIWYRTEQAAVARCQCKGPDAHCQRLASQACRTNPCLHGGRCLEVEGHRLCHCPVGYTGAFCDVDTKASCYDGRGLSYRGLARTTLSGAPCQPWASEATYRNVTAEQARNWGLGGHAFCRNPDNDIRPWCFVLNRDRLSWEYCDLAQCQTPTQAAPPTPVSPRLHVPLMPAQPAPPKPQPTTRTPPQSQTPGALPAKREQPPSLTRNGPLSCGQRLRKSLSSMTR
How it was run: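 Human FXIIa incubated at 25 °C with compound and H-DPro-Phe-Arg-AFC at its Km concentration. Linear fluorescence increase monitored over 5 min, expressed as % of uninhibited activity; IC50 is concentration giving 50% inhibition.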

SMILES	IC50 [nM]
Cc1cc(OCC23CN(C(=O)N(C)C[C@@H]4CCOC4)C(CNc4cccc5c(N)nccc45)(C2)C3)cc(=O)n1C [Example 47, (S)-1-(((1-aminoisoquinolin-5-yl)amino)methyl)-4-(((1,6-dimethyl-2-oxo-1,2-dihydropyridin-4-yl)oxy)methyl)-N-methyl-N-((tetrahydrofuran-3-yl)methyl)-2-azabicyclo[2.1.1]hexane-2-carboxamide]	10 to 100
Cc1ncccc1NCC12CC(COc3cc(C)n(C)c(=O)c3)(CN1C(=O)NC1(c3ccccc3)CC1)C2 [Example 56, 4-(((1,6-dimethyl-2-oxo-1,2-dihydropyridin-4-yl)oxy)methyl)-1-(((2-methylpyridin-3-yl)amino)methyl)-N-(1-phenylcyclopropyl)-2-azabicyclo[2.1.1]hexane-2-carboxamide]	40000 to 100000
Cc1cc(OCC23CN(C(=O)N(C)C[C@H]4CCOC4)C(CNc4cccc5c(N)nccc45)(C2)C3)cc(=O)n1C [Example 48, (R)-1-(((1-aminoisoquinolin-5-yl)amino)methyl)-4-(((1,6-dimethyl-2-oxo-1,2-dihydropyridin-4-yl)oxy)methyl)-N-methyl-N-((tetrahydrofuran-3-yl)methyl)-2-azabicyclo[2.1.1]hexane-2-carboxamide]	10 to 100
C[C@@H](NC(=O)N1CC2(COc3ccn(C)c(=O)c3)CC1(CNc1cccc3c(N)nccc13)C2)c1ccccc1 [Example 33, (R)-1-(((1-aminoisoquinolin-5-yl)amino)methyl)-4-(((1-methyl-2-oxo-1,2-dihydropyridin-4-yl)oxy)methyl)-N-(1-phenylethyl)-2-azabicyclo[2.1.1]hexane-2-carboxamide]	10 to 100
Cc1cc(OCC23CN(C(=O)N4CC5(CCOCC5)C4)C(CNc4cccc5c(N)nccc45)(C2)C3)cc(=O)n1C [Example 46, 4-((1-(((1-aminoisoquinolin-5-yl)amino)methyl)-2-(7-oxa-2-azaspiro[3.5]nonane-2-carbonyl)-2-azabicyclo[2.1.1]hexan-4-yl)methoxy)-1,6-dimethylpyridin-2(1H)-one]	10 to 100
Cn1ccc(OCC23CN(c4ncc(C5CC5)cn4)C(CNc4cccc5c(N)nccc45)(C2)C3)cc1=O [Example 93, 4-((1-(((1-aminoisoquinolin-5-yl)amino)methyl)-2-(5-cyclopropylpyrimidin-2-yl)-2-azabicyclo[2.1.1]hexan-4-yl)methoxy)-1-methylpyridin-2(1H)-one]	10 to 100
Cc1cc(OCC23CN(C(=O)N(C)C4COc5ccccc54)C(CNc4cccc5c(N)nccc45)(C2)C3)cc(=O)n1C (stereo not shown) [Example 90, 1-(((1-Aminoisoquinolin-5-yl)amino)methyl)-N-(2,3-dihydrobenzofuran-3-yl)-4-(((1,6-dimethyl-2-oxo-1,2-dihydropyridin-4-yl)oxy)methyl)-N-methyl-2-azabicyclo[2.1.1]hexane-2-carboxamide]	1 to 10
Cn1ccc(OCC23CN(C(=O)C4(c5ccccc5)CC4)C(CNc4cccc5c(N)nccc45)(C2)C3)cc1=O [Example 18, 4-((1-(((1-aminoisoquinolin-5-yl)amino)methyl)-2-(1-phenylcyclopropane-1-carbonyl)-2-azabicyclo[2.1.1]hexan-4-yl)methoxy)-1-methylpyridin-2(1H)-one]	100 to 300
COc1ccc2c(c1)CCCN2C(=O)N1CC2(COc3ccn(C)c(=O)c3)CC1(CNc1cccc3c(N)nccc13)C2 [Example 39, 4-((1-(((1-aminoisoquinolin-5-yl)amino)methyl)-2-(6-methoxy-1,2,3,4-tetrahydroquinoline-1-carbonyl)-2-azabicyclo[2.1.1]hexan-4-yl)methoxy)-1-methylpyridin-2(1H)-one]	100 to 300

Further lines, results first:

IC50 [nM]	SMILES
10 to 100	Cc1cc(OCC23CN(C(=O)N(C)[C@@H]4CCOC4)C(CNc4cccc5c(N)nccc45)(C2)C3)cc(=O)n1C [Example 40, (R)-1-(((1-aminoisoquinolin-5-yl)amino)methyl)-4-(((1,6-dimethyl-2-oxo-1,2-dihydropyridin-4-yl)oxy)methyl)-N-methyl-N-(tetrahydrofuran-3-yl)-2-azabicyclo [2.1.1]hexane-2-carboxamide]
1 to 10	Cn1ccc(OCC23CN(C(=O)N[C@@H]4C[C@H]4c4ccccc4)C(CNc4cccc5c(N)nccc45)(C2)C3)cc1=O (racemic) [Example 60, rac-1-(((1-aminoisoquinolin-5-yl)amino)methyl)-4-(((1-methyl-2-oxo-1,2-dihydropyridin-4-yl)oxy)methyl)-N-((1R,2S)-2-phenylcyclopropyl)-2-azabicyclo[2.1.1]hexane-2-carboxamide]
10 to 100	Cn1ccc(OCC23CN(C(=O)NC4(C)COC4)C(CNc4cccc5c(N)nccc45)(C2)C3)cc1=O [Example 79, 1-(((1-aminoisoquinolin-5-yl)amino)methyl)-4-(((1-methyl-2-oxo-1,2-dihydropyridin-4-yl)oxy)methyl)-N-(3-methyloxetan-3-yl)-2-azabicyclo[2.1.1]hexane-2-carboxamide]
100 to 300	Cn1ccc(OCC23CN(C(=O)C(C)(C)Oc4ccccc4)C(CNc4cccc5c(N)nccc45)(C2)C3)cc1=O [Example 4, 4-((1-(((1-aminoisoquinolin-5-yl)amino)methyl)-2-(2-methyl-2-phenoxypropanoyl)-2-azabicyclo[2.1.1]hexan-4-yl)methoxy)-1-methylpyridin-2(1H)-one]
1 to 10	C[C@H](c1ccccc1)N(C)C(=O)N1CC2(COc3ccn(C)c(=O)c3)CC1(CNc1cccc3c(N)nccc13)C2 [Example 43, (R)-1-(((1-aminoisoquinolin-5-yl)amino)methyl)-N-methyl-4-(((1-methyl-2-oxo-1,2-dihydropyridin-4-yl)oxy)methyl)-N-(1-phenylethyl)-2-azabicyclo[2.1.1]hexane-2-carboxamide]
100 to 300	Cn1ccc(OCC23CN(C(=O)N4CCCc5ccccc54)C(CNc4cccc5c(N)nccc45)(C2)C3)cc1=O [Example 36, 4-((1-(((1-aminoisoquinolin-5-yl)amino)methyl)-2-(1,2,3,4-tetrahydroquinoline-1-carbonyl)-2-azabicyclo[2.1.1]hexan-4-yl)methoxy)-1-methylpyridin-2(1H)-one]
1 to 10	Cn1ccc(OCC23CN(C(=O)Nc4cc(F)cc5c4OCOC5)C(CNc4cccc5c(N)nccc45)(C2)C3)cc1=O [Example 62, 1-(((1-aminoisoquinolin-5-yl)amino)methyl)-N-(6-fluoro-4H-benzo[d][1,3]dioxin-8-yl)-4-(((1-methyl-2-oxo-1,2-dihydropyridin-4-yl)oxy)methyl)-2-azabicyclo [2.1.1]hexane-2-carboxamide]
10 to 100	Cc1cc(OCC23CN(C(=O)CC4CCC(F)(F)CC4)C(CNc4cccc5c(N)nccc45)(C2)C3)cc(=O)n1C [Example 23, 4-((1-(((1-aminoisoquinolin-5-yl)amino)methyl)-2-(2-(4,4-difluorocyclohexyl)acetyl)-2-azabicyclo[2.1.1]hexan-4-yl)methoxy)-1,6-dimethylpyridin-2(1H)-one]
10 to 100	Cn1ccc(OCC23CN(C(=O)C[C@@H]4CCOC4)C(CNc4cccc5c(N)nccc45)(C2)C3)cc1=O [Example 11, (S)-4-((1-(((1-aminoisoquinolin-5-yl)amino)methyl)-2-(2-(tetrahydrofuran-3-yl)acetyl)-2-azabicyclo[2.1.1]hexan-4-yl)methoxy)-1-methylpyridin-2(1H)-one]
10 to 100	Cn1ccc(OCC23CN(C(=O)NC4(c5ccccc5)CCOCC4)C(CNc4cccc5c(N)nccc45)(C2)C3)cc1=O [Example 64, 1-(((1-aminoisoquinolin-5-yl)amino)methyl)-4-(((1-methyl-2-oxo-1,2-dihydropyridin-4-yl)oxy)methyl)-N-(4-phenyltetrahydro-2H-pyran-4-yl)-2-azabicyclo[2.1.1]hexane-2-carboxamide]
1 to 10	Cc1cc(OCC23CN(c4nnc(C5CC5)o4)C(CNc4cccc5c(N)nccc45)(C2)C3)cc(=O)n1C [Example 105, 4-((1-(((1-aminoisoquinolin-5-yl)amino)methyl)-2-(5-cyclopropyl-1,3,4-oxadiazol-2-yl)-2-azabicyclo[2.1.1]hexan-4-yl)methoxy)-1,6-dimethylpyridin-2(1H)-one]
10 to 100	C[C@H](C(=O)N1CC2(COc3ccn(C)c(=O)c3)CC1(CNc1cccc3c(N)nccc13)C2)c1ccccc1 [Example 13, (S)-4-((1-(((1-aminoisoquinolin-5-yl)amino)methyl)-2-(2-phenylpropanoyl)-2-azabicyclo[2.1.1]hexan-4-yl)methoxy)-1-methylpyridin-2(1H)-one]
10 to 100	Cc1cc(OCC23CN(C(=O)N4CCC5(CCOCC5)C4)C(CNc4cccc5c(N)nccc45)(C2)C3)cc(=O)n1C [Example 83, 4-((1-(((1-aminoisoquinolin-5-yl)amino)methyl)-2-(8-oxa-2-azaspiro[4.5]decane-2-carbonyl)-2-azabicyclo[2.1.1]hexan-4-yl)methoxy)-1,6-dimethylpyridin-2(1H)-one]
